Source: PubChem BioAssay (NCI)
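Five concentrations, 48 hours, 96-well plates. TGI: total growth inhibition.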

What was measured:
Assay in all cases: NCI tumour cell line growth inhibition, 48 h
[1] = system: UO-31 renal
[2] = system: EKVX NSCLC
[3] = system: HOP-92 NSCLC
[4] = system: ACHN renal
[5] = system: SK-OV-3 ovarian
[6] = system: HCC-2998 colon
[7] = system: A549 NSCLC
[8] = system: SNB-19 CNS
[9] = system: NCI-H460 lung
[10] = system: SNB-75 CNS
[11] = system: U251 CNS
[12] = system: M14 melanoma
[13] = system: NCI/ADR-RES ovarian
[14] = system: HS 578T breast
[15] = system: CAKI-1 renal
[16] = system: NCI-H23 lung
[17] = system: MCF7 breast
[18] = system: MDA-MB-231 breast
[19] = system: SF-295 CNS
[20] = system: LOX IMVI melanoma
[21] = system: IGROV1 ovarian
[22] = system: SK-MEL-5 melanoma
[23] = system: OVCAR-4 ovarian
[24] = system: RPMI-8226 leukemia
[25] = system: PC-3 prostate
[26] = system: CCRF-CEM leukemia
[27] = system: NCI-H226 lung
[28] = system: OVCAR-8 ovarian
[29] = system: SN12C renal
[30] = system: MDA-N
[31] = system: SF-539 CNS
[32] = system: OVCAR-5 ovarian
[33] = system: MOLT-4 leukemia
[34] = system: HCT-15 colon
[35] = system: UACC-62 melanoma
[36] = system: SR leukemia
[37] = system: NCI-H522 lung
[38] = system: HL-60(TB) leukemia
[39] = system: RXF 393 renal
[40] = system: MALME-3M melanoma
[41] = system: MDA-MB-435
[42] = system: SF-268 CNS
[43] = system: K-562 leukemia
[44] = system: OVCAR-3 ovarian
[45] = system: COLO 205 colon
[46] = system: BT-549 breast
[47] = system: SK-MEL-28 melanoma
[48] = system: HT29 colon
[49] = system: KM12 colon
[50] = system: SW-620 colon
[51] = system: TK-10 renal
[52] = system: HOP-62 NSCLC
[53] = system: DU-145 prostate
[54] = system: SK-MEL-2 melanoma
[55] = system: HCT-116 colon
[56] = system: T-47D breast
[57] = system: UACC-257 melanoma
[58] = system: 786-0 renal
[59] = system: A498 renal

SMILES: CCCCC(=C=C1CCCCC1O)C1CCCN1C(=O)OC(C)(C)C (stereo not given)
- TGI [1]: 35.8 µM
- TGI [2]: 28.4 µM
- TGI [3]: 26 µM
- TGI [4]: 29.2 µM
- TGI [5]: 31.2 µM
- TGI [6]: 36.6 µM
- TGI [7]: 29.3 µM
- TGI [8]: 31.1 µM
- TGI [9]: 31 µM
- TGI [10]: 26.7 µM
- TGI [11]: 29.4 µM
- TGI [12]: 30.9 µM
- TGI [13]: 30.6 µM
- TGI [14]: 41 µM
- TGI [15]: 24.4 µM
- TGI [16]: 32.4 µM
- TGI [17]: 31.6 µM
- TGI [18]: 30 µM
- TGI [19]: 28 µM
- TGI [20]: 32.3 µM
- TGI [21]: 31.1 µM
- TGI [22]: 30.9 µM
- TGI [23]: 27.4 µM
- TGI [24]: 32.6 µM
- TGI [25]: 29.6 µM
- TGI [26]: 35 µM
- TGI [27]: 34.8 µM
- TGI [28]: 34.6 µM
- TGI [29]: 31.7 µM
- TGI [30]: 30 µM
- TGI [31]: 35.5 µM
- TGI [32]: 29.4 µM
- TGI [33]: 33.5 µM
- TGI [34]: 32.3 µM
- TGI [35]: 23.4 µM
- TGI [36]: > 100 µM
- TGI [37]: 32.8 µM
- TGI [38]: 25.5 µM
- TGI [39]: 27.1 µM
- TGI [40]: 31.6 µM
- TGI [41]: 30.6 µM
- TGI [42]: 32.7 µM
- TGI [43]: 34.1 µM
- TGI [44]: 29.1 µM
- TGI [45]: 43.8 µM
- TGI [46]: 35.4 µM
- TGI [47]: 29.6 µM
- TGI [48]: 27.3 µM
- TGI [49]: 31.5 µM
- TGI [50]: 35.4 µM
- TGI [51]: 29.8 µM
- TGI [52]: 31.7 µM
- TGI [53]: 31.4 µM
- TGI [54]: 30 µM
- TGI [55]: 27.3 µM
- TGI [56]: 29.8 µM
- TGI [57]: 29.4 µM
- TGI [58]: 29.6 µM

SMILES: CN1CC(C(=O)NC2(C)OC3(O)C4CCCN4C(=O)C(Cc4ccccc4)N3C2=O)C=C2c3cccc4[nH]cc(c34)CC21 (stereo not given)
- TGI [1]: 77.9 µM
- TGI [2]: > 100 µM
- TGI [3]: 38.6 µM
- TGI [4]: 55.1 µM
- TGI [5]: > 100 µM
- TGI [7]: > 100 µM
- TGI [8]: > 100 µM
- TGI [10]: > 100 µM
- TGI [11]: 38.2 µM
- TGI [12]: 81.4 µM
- TGI [13]: 95.1 µM
- TGI [14]: 29 µM
- TGI [15]: 92 µM
- TGI [16]: 46.9 µM
- TGI [17]: > 100 µM
- TGI [18]: 45.5 µM
- TGI [19]: 57.1 µM
- TGI [20]: 35.9 µM
- TGI [21]: 50.8 µM
- TGI [22]: 30.6 µM
- TGI [23]: > 100 µM
- TGI [24]: > 100 µM
- TGI [25]: 59.6 µM
- TGI [26]: > 100 µM
- TGI [27]: 95.5 µM
- TGI [28]: 53.7 µM
- TGI [29]: 43.5 µM
- TGI [30]: 55.1 µM
- TGI [31]: 39 µM
- TGI [32]: 44.9 µM
- TGI [33]: > 100 µM
- TGI [34]: 45.9 µM
- TGI [35]: 34.7 µM
- TGI [36]: 60.7 µM
- TGI [37]: 33.3 µM
- TGI [38]: 39.1 µM
- TGI [39]: 40.5 µM
- TGI [40]: 38.6 µM
- TGI [41]: 50.7 µM
- TGI [42]: 29.6 µM
- TGI [43]: > 100 µM
- TGI [44]: 43.3 µM
- TGI [45]: 40 µM
- TGI [46]: 43 µM
- TGI [47]: 35.2 µM
- TGI [48]: 71.1 µM
- TGI [49]: 99.6 µM
- TGI [50]: > 100 µM
- TGI [51]: 41.4 µM
- TGI [52]: 63.2 µM
- TGI [53]: 67.8 µM
- TGI [54]: 35.1 µM
- TGI [55]: 48.7 µM
- TGI [59]: 30.9 µM
- TGI [56]: > 100 µM
- TGI [57]: 29.8 µM
- TGI [58]: 45 µM
